From US11229203B2, “Method of formulation of combined microbe and agricultural chemistry, microbe-derivative composition, and use of same” (priority 2017, dated 2022)

Legend:
plant = experiment: Plant growth and productivity with 1-octen-3-ol in aerial solution or as seed treatment; assay type: in vivo; conditions: very low concentrations in aerial solution; duplicated by seed treatments at low concentrations
Excerpt: Applicants have begun evaluating the triggering molecules released in the rhizosphere since applicants expected that they might have both commercial and basic scientific uses. The expectation was they would have beneficial effects upon plants.

seeds = experiment: Field trials and large-scale laboratory tests of seed treatments; assay type: in vivo; conditions: seeds treated with formulations containing only 0.7 μl/seed
Excerpt: Applicants expected that this compound as well as other microbial metabolites would have transitory but beneficial effects on plant growth, resistance to stresses and other advantages. However, as field trials were developed and conducted on seed treatments with this compound in field and large-scale laboratory tests, the effects were discovered to be neither transitory nor small.

## C=CC(O)CCCCC (centres unmarked) [Trichoderma 1-octen-3-ol, 1-octen-3-ol]
plant
  Effect on plant growth and productivity: enhances plant growth and productivity
seeds
  Duration of effects after seed treatment: season long effects were observed
